This is an account of results in ChEMBL document CHEMBL4627302, “Design, synthesis and anticancer activities of novel dual poly(ADP-ribose) polymerase-1/histone deacetylase-1 inhibitors” (Bioorg Med Chem Lett, 2020).

Assay [1] addresses T1, Poly [ADP-ribose] polymerase 1 (Homo sapiens, UniProt P09874). The experiment in a line: Inhibition of PARP1 (unknown origin) at 20 nM relative to control.
A further assay addresses Histone deacetylase 1 (Homo sapiens, UniProt Q13547). Briefly: Inhibition of HDAC1 (unknown origin).
The test system of the next assay is K562. The experiment in a line: Antiproliferative activity against human K562 cells assessed as cell growth inhibition by MTT assay. In kind it is functional. A general note: Tetrazolium assays rely on reduction of a dye to a coloured formazan, in cell work by metabolically active cells.
In the next assay the test system is MCF7. Briefly: Antiproliferative activity against human MCF7 cells assessed as cell growth inhibition by MTT assay. Type of assay: functional.
Another assay relates to MDA-MB-231. Briefly: Antiproliferative activity against human MDA-MB-231 cells assessed as cell growth inhibition by MTT assay. In kind it is functional.
In assay [2] the target is T1, Poly [ADP-ribose] polymerase 1. Briefly: Inhibition of PARP1 (unknown origin).
Assay [3] has the same target. The experiment in a line: Potency index, ratio of olaparib IC50 to test compound IC50 for inhibition of PARP1 (unknown origin).

Active and inactive are the calls of the source. The rule behind the calls is not given here.

Sequence of Histone deacetylase 1 (Q13547 whole entry): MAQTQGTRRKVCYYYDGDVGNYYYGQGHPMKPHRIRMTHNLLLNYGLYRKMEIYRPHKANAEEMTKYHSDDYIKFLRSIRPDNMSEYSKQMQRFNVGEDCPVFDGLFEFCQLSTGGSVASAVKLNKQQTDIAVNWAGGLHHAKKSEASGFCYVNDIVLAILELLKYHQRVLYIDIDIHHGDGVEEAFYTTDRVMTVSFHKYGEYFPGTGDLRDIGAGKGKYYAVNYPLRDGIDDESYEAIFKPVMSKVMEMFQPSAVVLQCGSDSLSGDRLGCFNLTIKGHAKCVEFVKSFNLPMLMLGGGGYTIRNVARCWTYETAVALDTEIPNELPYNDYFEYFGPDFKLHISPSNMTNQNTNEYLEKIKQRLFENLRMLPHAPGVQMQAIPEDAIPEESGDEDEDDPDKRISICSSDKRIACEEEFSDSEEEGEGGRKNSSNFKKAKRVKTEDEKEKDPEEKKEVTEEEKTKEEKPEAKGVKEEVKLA
T1 sequence (P09874 whole entry): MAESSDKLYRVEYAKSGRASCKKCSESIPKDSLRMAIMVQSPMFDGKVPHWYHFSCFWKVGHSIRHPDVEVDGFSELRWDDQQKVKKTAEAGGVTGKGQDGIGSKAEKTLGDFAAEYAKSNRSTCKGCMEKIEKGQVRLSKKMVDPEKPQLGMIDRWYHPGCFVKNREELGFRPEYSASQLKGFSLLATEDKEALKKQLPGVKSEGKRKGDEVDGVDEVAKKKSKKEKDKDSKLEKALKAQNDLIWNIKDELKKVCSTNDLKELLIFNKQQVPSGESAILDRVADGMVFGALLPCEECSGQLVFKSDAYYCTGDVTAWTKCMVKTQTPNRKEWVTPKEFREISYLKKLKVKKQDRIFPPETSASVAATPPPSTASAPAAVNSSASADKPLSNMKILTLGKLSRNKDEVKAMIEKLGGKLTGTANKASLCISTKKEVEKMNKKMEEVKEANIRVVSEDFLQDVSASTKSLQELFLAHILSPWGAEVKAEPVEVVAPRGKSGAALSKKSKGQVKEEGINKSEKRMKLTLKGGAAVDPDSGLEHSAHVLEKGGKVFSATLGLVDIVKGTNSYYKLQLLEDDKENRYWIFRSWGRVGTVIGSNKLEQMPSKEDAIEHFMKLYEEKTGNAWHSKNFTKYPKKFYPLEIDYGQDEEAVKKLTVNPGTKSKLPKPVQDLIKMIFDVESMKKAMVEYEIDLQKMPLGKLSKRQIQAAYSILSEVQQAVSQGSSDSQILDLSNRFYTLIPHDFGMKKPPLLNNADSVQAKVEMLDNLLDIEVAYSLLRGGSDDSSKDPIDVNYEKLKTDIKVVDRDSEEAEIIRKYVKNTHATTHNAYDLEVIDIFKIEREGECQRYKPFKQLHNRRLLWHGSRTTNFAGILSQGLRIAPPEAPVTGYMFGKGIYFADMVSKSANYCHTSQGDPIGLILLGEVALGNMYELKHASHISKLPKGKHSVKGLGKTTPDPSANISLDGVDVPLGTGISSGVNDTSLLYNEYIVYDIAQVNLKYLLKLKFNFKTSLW

With `Nc1cc(F)ccc1NC(=O)[C@H]1CC[C@H](CNC(=O)c2cc(Cc3n[nH]c(=O)c4ccccc34)ccc2F)CC1`, in assay [1], the inhibition (commonly the share of the control response that was lost under treatment) stood at 49.7%. Further, the IC50 (as a rule, the midpoint of a concentration-inhibition curve) on Histone deacetylase 1 (read-out: IC50) came to 0.89 µM. For the same molecule, the values for the GI50 in the assay with K562 and in the assay with MDA-MB-231 were 6.61 µM and 49.2 µM, respectively. The GI50 (as a rule, the concentration giving 50% growth inhibition) with MCF7 was “inactive”.

For `O=C(c1cc(Cc2n[nH]c(=O)c3ccccc23)ccc1F)N1CCN(C(=O)C2CC2)CC1` [OLAPARIB], at Histone deacetylase 1, the IC50 entry is reported as “Not Active”. Moreover, in the assay with K562, the GI50 entry was “inactive”. Further, the GI50 in the assay on MCF7 worked out at 13.2 µM; in the assay on MDA-MB-231 it was 4.23 µM.

Turning to `Nc1ccc(F)cc1NC(=O)CCCCNC(=O)c1cc(Cc2n[nH]c(=O)c3ccccc23)ccc1F`, the inhibition in assay [1] is 42.4%. For the same molecule, at Histone deacetylase 1 (read-out: IC50), the IC50 was found to be 0.91 µM. For the same molecule, the GI50 result in the assay with K562 and with MCF7 was “inactive” each time. Further, in the assay with MDA-MB-231, the GI50 was 31.3 µM.

`Nc1cc(F)ccc1NC(=O)CCCCNC(=O)c1cc(Cc2n[nH]c(=O)c3ccccc23)ccc1F` had an inhibition in assay [1] of 64.7%. In addition, the IC50 at Histone deacetylase 1 (read-out: IC50) turned out to be 1 µM. In the assay with MCF7, the GI50 result is “inactive”. The GI50 with MDA-MB-231 was found to be 25.4 µM.

Molecule `Nc1cc(F)ccc1NC(=O)CCCCCNC(=O)c1cc(Cc2n[nH]c(=O)c3ccccc23)ccc1F` had an inhibition in assay [1] of 46.2%. Also, the IC50 at Histone deacetylase 1 (read-out: IC50) is 0.81 µM. Moreover, the figures for the GI50 in the assay with K562 and with MDA-MB-231 were 14.7 µM and 40.5 µM, respectively. In addition, in the assay on MCF7, the GI50 entry was “inactive”.

`Nc1ccc(F)cc1NC(=O)CCCCCNC(=O)c1cc(Cc2n[nH]c(=O)c3ccccc23)ccc1F` showed an inhibition in assay [1] of 65.9%. In addition, on Histone deacetylase 1 (read-out: IC50), the IC50 is 0.52 µM. Besides, the results for the 50% growth inhibitory concentration (GI50) in the assay on K562 and in the assay on MDA-MB-231 were 8.13 µM and 13.9 µM, respectively. In addition, the GI50 entry in the assay with MCF7 is “inactive”.

Take `Nc1ccc(F)cc1NC(=O)c1ccc(CNC(=O)/C=C/c2cccnc2)cc1`: the IC50 result in assay [2] was “Not Active”. The figures for the GI50 in the assay with K562, in the assay with MCF7 and in the assay with MDA-MB-231 were 0.45 µM, 1.43 µM and 2.88 µM, respectively.

For `Nc1cc(F)ccc1NC(=O)C1CCN(C(=O)c2cc(Cc3n[nH]c(=O)c4ccccc34)ccc2F)CC1`, the IC50 in assay [2] (read-out: IC50) stood at 0.00258 µM; at Histone deacetylase 1 (read-out: IC50), 0.94 µM. Also, the GI50 entry with K562 and in the assay on MCF7 was “inactive” in each case. In addition, in the assay with MDA-MB-231, the GI50 is 4.49 µM.

As for `Nc1ccccc1NC(=O)CCCCNC(=O)c1cc(Cc2n[nH]c(=O)c3ccccc23)ccc1F`, in assay [1], the inhibition worked out at 39.4%. Besides, on Histone deacetylase 1 (read-out: IC50), the IC50 was 0.74 µM. The figures for the concentration for 50% growth inhibition (GI50) in the assay with K562 and in the assay on MDA-MB-231 were 62.4 µM and 61.6 µM, respectively. Moreover, the GI50 entry in the assay with MCF7 was “inactive”.

The molecule `Nc1ccccc1NC(=O)[C@H]1CC[C@H](CNC(=O)c2cc(Cc3n[nH]c(=O)c4ccccc34)ccc2F)CC1` displayed an inhibition in assay [1] of 41.3%. Further, at Histone deacetylase 1 (read-out: IC50), the IC50 came out at 0.34 µM. Moreover, the values for the GI50 in the assay with K562, with MCF7 and in the assay with MDA-MB-231 were 2.92 µM, 11.1 µM and 50.5 µM, respectively.

In assay [1], `Nc1ccccc1NC(=O)c1ccc(CNC(=O)c2cc(Cc3n[nH]c(=O)c4ccccc34)ccc2F)cc1` returned an inhibition of 37.4%. For the same molecule, on Histone deacetylase 1 (read-out: IC50), the IC50 is 0.14 µM. Besides, the GI50 was 0.408 µM in the assay on K562, 1.91 µM in the assay with MCF7 and 59.3 µM in the assay with MDA-MB-231.

In the case of `Nc1ccc(F)cc1NC(=O)C1CCN(C(=O)c2cc(Cc3n[nH]c(=O)c4ccccc34)ccc2F)CC1`, the IC50 in assay [2] (read-out: IC50) came out at 0.00181 µM; at Histone deacetylase 1 (read-out: IC50) it was 0.95 µM. For the same molecule, the GI50 entry in the assay with K562 and in the assay with MCF7 was “inactive” each time. For the same molecule, in the assay on MDA-MB-231, the GI50 amounted to 1.03 µM.

Regarding `Nc1ccccc1NC(=O)CCCCCNC(=O)c1cc(Cc2n[nH]c(=O)c3ccccc23)ccc1F`, the IC50 worked out at 0.00423 µM in assay [2] (read-out: IC50) and 0.34 µM on Histone deacetylase 1 (read-out: IC50). The GI50 in the assay on K562 was determined as 5.62 µM; with MDA-MB-231, 4.35 µM. The GI50 entry in the assay on MCF7 was “inactive”.

For `Nc1cc(F)ccc1NC(=O)c1ccc(CNC(=O)c2cc(Cc3n[nH]c(=O)c4ccccc34)ccc2F)cc1`, the inhibition in assay [1] came out at 22.1%. For the same molecule, on Histone deacetylase 1 (read-out: IC50), the IC50 amounted to 0.34 µM. For the same molecule, the GI50 in the assay with K562 turned out to be 2.21 µM; in the assay on MCF7 it was 11.5 µM; in the assay on MDA-MB-231, 78.7 µM.

For `Nc1ccccc1NC(=O)C1CCN(C(=O)c2cc(Cc3n[nH]c(=O)c4ccccc34)ccc2F)CC1`, the IC50 is 0.00194 µM in assay [2] (read-out: IC50) and 0.82 µM at Histone deacetylase 1 (read-out: IC50). The GI50 result in the assay on K562 and in the assay on MCF7 was “inactive” each time. Also, the GI50 with MDA-MB-231 was determined as 2.31 µM. In addition, the Ratio IC50 in assay [3] was 2.
